Values joined by “and” are separate entries in the source; they are usually repeats but may differ in a detail not shown here. Equal entries are not always repeated.

For experiment [1], the target named is EP4. Also noted: method as in Nakao et al, 2007. The following applies: [3H]-PGE2 binding assay; ref Nakao et al, 2007; cited from earlier work.
For experiment [2], the target named is T1, EP4 S73A (Homo sapiens, UniProt P35408, S73A).
T1 construct: The full-length EP2 or EP4 was cloned into the pcDNA3.1 vector; FLAG (N); expressed in transfected cells; host or cells: AD293 cells
T1 sequence (P35408 whole entry S73A): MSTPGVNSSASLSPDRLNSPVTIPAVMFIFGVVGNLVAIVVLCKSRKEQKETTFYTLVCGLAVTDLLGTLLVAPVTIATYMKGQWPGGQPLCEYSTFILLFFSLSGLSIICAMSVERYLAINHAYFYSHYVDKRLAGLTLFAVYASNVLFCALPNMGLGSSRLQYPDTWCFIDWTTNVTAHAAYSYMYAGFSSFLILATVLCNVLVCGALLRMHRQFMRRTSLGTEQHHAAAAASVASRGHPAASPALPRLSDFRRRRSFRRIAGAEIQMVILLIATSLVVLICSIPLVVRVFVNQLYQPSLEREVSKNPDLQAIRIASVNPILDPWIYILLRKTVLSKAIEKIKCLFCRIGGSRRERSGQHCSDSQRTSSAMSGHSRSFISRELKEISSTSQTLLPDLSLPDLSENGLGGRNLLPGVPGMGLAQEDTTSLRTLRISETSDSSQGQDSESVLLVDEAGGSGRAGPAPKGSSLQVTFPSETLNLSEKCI
As to the kind of experiment: GloSensor cAMP assay, antagonism of PGE2-induced cAMP. Type of experiment: cell-based. The note with it: for cAMP activity (∆pIC50 from EP4 WT): Grapiprant, S73A; for ΔpIC50: PGE2 0.5 nM, pIC50 mutant - pIC50 WT, mean. On the technique in general: cAMP levels reflect the balance of adenylyl cyclase and phosphodiesterase activity.

Experiment [3] concerns the target T2, constitutively active EP4 S73A (Homo sapiens, UniProt P35408, S73A).
T2 construct: The full-length EP2 or EP4 was cloned into the pcDNA3.1 vector (Invitrogen), incorporating an N-terminal FLAG tag; expressed in transfected cells; host or cells: AD293
Description: GloSensor cAMP assay, inhibition of constitutive activity. The format is cell-based. The note with it: for ΔpIC50: no PGE2, pIC50 mutant - pIC50 WT, mean.

The target of experiment [4] is T3, EP4-L99M (Homo sapiens, UniProt P35408, L99M).
T3 construct: The full-length EP2 or EP4 was cloned into the pcDNA3.1 vector (Invitrogen), incorporating an N-terminal FLAG tag; expressed in transfected cells; host or cells: AD293
T3 sequence (P35408 whole entry L99M): as the sequence (P35408 whole entry S73A) above, with A73S, L99M counted along it
As to the kind of experiment: GloSensor cAMP assay, antagonism of PGE2-induced cAMP, chimeric studies. The format is cell-based. The following applies: for ΔpIC50: PGE2 induced, pIC50 mutant - pIC50 WT, mean. Here is the method:
The full-length EP2 or EP4 was cloned into the pcDNA3.1 vector (Invitrogen), incorporating an N-terminal FLAG tag. AD293 cells were seeded in six-well plates containing DMEM supplemented with 10% dialyzed FBS 1 day prior to transfection. Following overnight growth, cells were transfected with a 1:1 ratio of receptor construct and GloSensor22F cAMP biosensor (Promega) plasmids.
Twenty-four hours post-transfection, the cells were transferred to CO2-independent media containing 2% GloSensor cAMP Reagent (Promega) and distributed into 384-well assay plates at a density of 4000 cells per well in 10 μL. […] The plates were then incubated at 37 °C for an additional hour before luminescence measurements were taken using an EnVision plate reader.
Data analysis was performed using GraphPad Prism software v8.0.1. A nonlinear regression analysis, employing a sigmoidal dose–response model, was conducted to determine the Emax values and half-maximum inhibitory concentrations (IC50) for each compound tested.

In experiment [5] the test system is EP2. Set-up: method as in af Forselles et al, 2011. The following applies: against PGE2-induced cAMP signaling in GloSensor cAMP assay; ref af Forselles et al, 2011; cited from earlier work.

T2 sequence (P35408 whole entry S73A): as the sequence (P35408 whole entry S73A) above

What is called Ki is the equilibrium dissociation constant of an inhibitor or competing ligand from its target. Usually IC50 stands for the point on the concentration scale where inhibition reaches its midpoint. Low values mean greater potency in that assay, high ones weaker potency in that assay. As to `CCc1nc2c(C)nc(C)cc2n1-c1ccc(CCNC(=O)NS(=O)(=O)c2ccc(C)cc2)cc1` [Grapiprant], in experiment [1], the Ki is 13 nM. Also, the IC50 is 5.62 nM in experiment [2] and 2.19 nM in experiment [3]. For the same compound, the remaining activity at 0.01 µM in experiment [2] (1 h, Grapiprant log([M]) -8, read-out: % cAMP activity (normalized to WT)) amounted to 11.4%; in experiment [3] (1 h, Grapiprant log([M]) -8.00, EP4-S73A, read-out: % cAMP activity (normalized to WT)) it was 38.9%. Besides, the remaining activity at 0.001 µM was 21.5% in experiment [2] (1 h, Grapiprant log([M]) -9, read-out: % cAMP activity (normalized to WT)) and 127% in experiment [3] (1 h, Grapiprant log([M]) -9.00, EP4-S73A, read-out: % cAMP activity (normalized to WT)). The remaining activity at 0.0001 µM was 24.9% in experiment [2] (1 h, Grapiprant log([M]) -10, read-out: % cAMP activity (normalized to WT)) and 83.5% in experiment [4] (1 h, Grapiprant log([M]) -10, single experiments 1st-3rd, Fig. S7C, read-out: % cAMP activity (normalized to WT)). Moreover, the remaining activity at 10 pM in experiment [2] (1 h, Grapiprant log([M]) -11, read-out: % cAMP activity (normalized to WT)) was 27.6%. Besides, the remaining activity at 1 pM in experiment [2] (1 h, Grapiprant log([M]) -12, read-out: % cAMP activity (normalized to WT)) turned out to be 23.6%; in experiment [3] (1 h, Grapiprant log([M]) -12.00, EP4-S73A, read-out: % cAMP activity (normalized to WT)), 170%; in experiment [4] (1 h, Grapiprant log([M]) -12, single experiments 1st-3rd, Fig. S7C, read-out: % cAMP activity (normalized to WT)), 85.6%. Also, the “cAMP activity (∆pIC50 from EP4 WT)” value is 0.985 in experiment [2] (Mean); 1.017 and 1.087 and 0.851 in experiment [2] (single experiments 1st-3rd). The ΔpIC50 in experiment [2] is listed as 0.99 ± 0.07; in experiment [2] (listed as grapiprant) it was “enhanced the antagonism”; in experiment [3], 0.22 ± 0.08; in experiment [3] (listed as grapiprant) it was “hardly influenced antagonistic potency”; in experiment [4], -0.23 ± 0.07; in experiment [4] (listed as grapiprant) it was “slightly decreased the antagonistic potency”. For the same compound, the remaining activity at 10 µM in experiment [3] (1 h, Grapiprant log([M]) -5.00, EP4-S73A, read-out: % cAMP activity (normalized to WT)) turned out to be 12.1%. Besides, in experiment [3] (1 h, Grapiprant log([M]) -6.00, EP4-S73A, read-out: % cAMP activity (normalized to WT)), the remaining activity at 1 µM is 13.5%. Also, the remaining activity at 0.1 µM in experiment [3] (1 h, Grapiprant log([M]) -7.00, EP4-S73A, read-out: % cAMP activity (normalized to WT)) is 20.4%; in experiment [4] (1 h, Grapiprant log([M]) -7, single experiments 1st-3rd, Fig. S7C, read-out: % cAMP activity (normalized to WT)), 52.4%. Further, the “Grapiprant cAMP activity (∆pIC50 from EP4 WT), Mean” value in experiment [3] (S73A, Mean) amounted to 0.215. Besides, the “Grapiprant cAMP activity (∆pIC50 from EP4 WT)” value in experiment [3] (S73A, single experiments 1st-3rd) is 0.364 and 0.097 and 0.184.
Turning to `COc1ccc2cc(OCC3(C(=O)O)CN(C(=O)c4ccc(F)cc4)C3)ccc2c1` [PF-04418948], the Kb in experiment [5] was 1.8 nM.

These data come from PMC12669672, “Structural insights into selective and dual antagonism of EP2 and EP4 prostaglandin receptors” (The EMBO Journal, 2025).
